# Measured values published in the supplement of paper PMC13380429.
# How the values were obtained:
# Details in all cases: 72 h
# [1] = tested on: Caco-2; assay: cell viability relative to DMSO; higher = less toxic
# [2] = tested on: Calu-3; assay: as above
# [3] = tested on: HepG2; assay: as above
# [4] = tested on: U2OS; assay: as above
# [5] = tested on: Vero E6; assay: as above
# [6] = tested on: Caco-2; assay: relative viability EC50 (midpoint between 100% and the lowest measured viability); higher = less toxic
# [7] = tested on: Calu-3; assay: as above
# [8] = tested on: HepG2; assay: as above
# [9] = tested on: U2OS; assay: as above
# [10] = tested on: Vero E6; assay: as above
# [11] = tested on: Caco-2; assay: drug sensitivity score (DSS) for viability; higher = more toxic; extreme values may be limits of the assay
# [12] = tested on: Calu-3; assay: as above
# [13] = tested on: HepG2; assay: as above
# [14] = tested on: U2OS; assay: as above
# [15] = tested on: Vero E6; assay: as above
Structure (SMILES),cell viability ([1]; 1 nM),cell viability ([1]; 10 nM),cell viability ([1]; 100 nM),cell viability ([1]; 1000 nM),cell viability ([1]; 10000 nM),cell viability ([2]; 1 nM),cell viability ([2]; 10 nM),cell viability ([2]; 100 nM),cell viability ([2]; 1000 nM),cell viability ([2]; 10000 nM),cell viability ([3]; 1 nM),cell viability ([3]; 10 nM),cell viability ([3]; 100 nM),cell viability ([3]; 1000 nM),cell viability ([3]; 10000 nM),cell viability ([4]; 1 nM),cell viability ([4]; 10 nM),cell viability ([4]; 100 nM),cell viability ([4]; 1000 nM),cell viability ([4]; 10000 nM),cell viability ([5]; 1 nM),cell viability ([5]; 10 nM),cell viability ([5]; 100 nM),cell viability ([5]; 1000 nM),cell viability ([5]; 10000 nM),relative viability EC50 [6],relative viability EC50 [7],relative viability EC50 [8],relative viability EC50 [9],relative viability EC50 [10],drug sensitivity score [11],drug sensitivity score [12],drug sensitivity score [13],drug sensitivity score [14],drug sensitivity score [15]
C=CCNC(=O)c1cc([N+](=O)[O-])cc2c(=O)[nH]c(Nc3ccc(Cl)c(Cl)c3)nc12,100%,95.5%,99.1%,96.5%,98.4%,104%,93.2%,103%,102%,94%,104%,90.5%,100%,91.9%,95.8%,97.7%,96.2%,102%,98%,92.1%,92.4%,94.3%,92.9%,97.5%,97.7%,> 10 µM,> 10 µM,> 10 µM,> 10 µM,> 10 µM,0,0,0,0,0
CC#CCOC(=O)c1c(C)nc2sc3c(c2c1N)CCC(O)C3 (stereo not given),97.3%,91.4%,101%,92.3%,90.2%,113%,93.6%,102%,101%,97.4%,100%,94.8%,89.9%,106%,91.4%,100%,94.6%,103%,93.8%,95.9%,91.6%,97%,88.6%,93.2%,98.9%,> 10 µM,> 10 µM,> 10 µM,> 10 µM,> 10 µM,0,0,0,0,0
CC(C)Oc1cccc(CC(=O)N2CCC[C@](CC[N+]34CCC(c5ccccc5)(CC3)CC4)(c3ccc(Cl)c(Cl)c3)C2)c1,102%,99.7%,100%,97.9%,91.8%,87.6%,98.1%,91.1%,92.5%,99.1%,110%,84.1%,104%,91%,95.7%,96.8%,99.4%,96.8%,99.3%,98.8%,101%,98.2%,100%,95.8%,97%,> 10 µM,> 10 µM,> 10 µM,> 10 µM,> 10 µM,0,0,0,0,0
CCCN(CCC)C1Cc2cc(OC)c(OC)cc2C1,96.6%,99.6%,94.1%,98.3%,89.9%,96.9%,108%,92.3%,93.7%,108%,96.1%,106%,101%,99.8%,94.6%,102%,97.5%,100%,99.5%,104%,103%,103%,103%,102%,99%,> 10 µM,> 10 µM,> 10 µM,> 10 µM,> 10 µM,0,0,0,0,0
CCOc1cc(/C=C2/C(=O)N(c3ccccc3)N=C2C)cc(Cl)c1OCC(=O)OC,102%,108%,92.4%,92.9%,97.4%,92.9%,95.9%,105%,94.8%,108%,96.5%,101%,96.1%,98.3%,91.6%,102%,100%,98.2%,96.2%,99.4%,104%,106%,103%,102%,97.7%,> 10 µM,> 10 µM,> 10 µM,> 10 µM,> 10 µM,0,0,0,0,0
